In US11572373B2, “Maytansinoid-based drug delivery systems” (LADRX CORPORATION, priority 2017, dated 2023):
pIC50: −log10 of the molar value. Like-named read-outs stand apart in the source and are kept apart here. Marks after values point to notes of the source that are not given here.

Experiments:
[1] = Stability of maytansinoids and maytansinoid-HSA conjugates in human plasma; format: in vitro ADME; conditions: 37° C., 30 μM
Protocol: (§1) For studying the stability of the maytansinoids as wells as the maytansinoid-HSA conjugates in CD1 and human plasma the compounds were incubated at 37° C. for 24 hours. Remaining free maytansinoid or release of the respective maytansinoid was quantified by LC-MS/MS (or HPLC) at certain time points.
(§2) Pooled CD1 mouse or human plasma (K2EDTA, Innovative research) was centrifuged (1 min at 12,044 g). The supernatant was first filtered through a filter needle (5 μm, sterile, Becton Dickinson) and subsequently through a cellulose acetate membrane (0.45 μm, sterile, Carl Roth). The filtered plasma (1710 μL) was preincubated at 37° C. for 30 min in a heating block. The free maytansinoid or albumin-binding maytansinoid as a 300 μM stock solution in DMSO (190 μL) was added to the preincubated plasma sample to produce a 30 μM solution of the respective maytansinoid or maytansinoid-HSA conjugate. The mixture was allowed to react for 10 min at 37° C. and then at each time point (0, 1, 2, 3, 4, 5, 21, and 24 hours) three samples (70 μL) were taken into a 96-well plate, sealed with a plastic mat, immediately frozen with liquid nitrogen and stored at −20° C. At the end of the experiment, the 96-well plate was thawed at room temperature. The samples (30 μL) were then directly transferred via a multichannel pipette into a 96-well Impact™ protein precipitation plate (Strata®) which was once washed with MeCN (150 μL) and then loaded with the internal standard (120 μL, MeCN containing 5 μg/mL maytansine). The Impact™ precipitation plate was sealed with a silicone mat and shaken for 2 min 420 rpm. The Impact™ precipitation plate was then placed onto a 96-well sample manifold and the filtrate was collected into another 96-well plate by applying mild vacuum. The 96-well plate was sealed with a silicone mat and kept at room temperature until LC-MS/MS quantification. The filtrate was injected into the LC-MS for quantification using the MRM mode. […]

[2] = Stability of maytansinoids and maytansinoid-HSA conjugates in CD1 mouse plasma; format: in vitro ADME; conditions: 37° C., 30 μM
Protocol: as §1, §2

[3] = In vitro cytotoxicity in different cell lines using the CellTiter-Blue Cell Viability Assay; format: cell-based, human; conditions: Homo sapiens; geometric mean over the n cell lines tested, 96 h treatment, CellTiter-Blue; read-out: Geomean IC50
[4] = system: human tumor xenograft models; test: Antitumor activity in human tumor xenograft mice models; format: in vivo; conditions: five human tumor xenograft models in nude mice, i.v. on day 1, 8, 15, and 22
Excerpt: This included starting tumor volumes in the range of approximately 80-110 mm^3 but also initial starting tumor volumes of up to approximately 400 mm^3. Furthermore, in most cases therapy with albumin-binding maytansinoids 30 and 31 induced long-term remissions and a decrease in Relative Tumor Volume (RTV). […] Experimental procedure and the results in the tumor-bearing mice models are described in detail in Examples 11-19 and FIGS. 3-16.
Female immunodeficient NMRI nude mice, from Charles River, received unilateral tumor implants subcutaneously in the left flank while under isoflurane anesthesia with human cancer tumors until tumors were palpable and had reached a volume of 80-200 mm^3 (unless otherwise stated).
Animals were kept in cages, the temperature inside the cages maintained at 25±1° C. with a relative humidity of 45-65% and an air change rate in the cage of 60-fold per hour. They were kept under a 14 h light: 10 h dark, artificial light cycle. The animals were fed with autoclaved Teklad Global 19% Protein Extruded Diet (T.2019S.12) from Envigo RMS SARL and had access to sterile filtered and acidified (pH 2.5) tap water, which was changed twice weekly. Feed and water were provided ad libitum. […] Animals were routinely monitored twice daily on working days and daily on Saturdays and Sundays. […] Relative body weights (RBW) of individual animals were calculated by dividing the individual absolute body weight on day X (BWx) by the individual body weight on the day of randomization multiplied by 100%. The tumor volume was determined by a two-dimensional measurement with calipers on the day of randomization (day 0) and then twice weekly. Tumor volumes were calculated according to the following equation: Tumor Vol [mm^3]=1 [mm]×w^2 [mm^2]×0.5, where “1” is the length and “w” is width of the tumor. The relative volume of an individual tumor on day X (RTVx) was calculated by dividing the absolute individual tumor volume [mm^3] of the respective tumor on day X (Tx) by the absolute individual tumor volume of the same tumor on the day of randomization multiplied by 100%. […]

[5] = molecular target: T1, albumin (Homo sapiens, UniProt P02768); test: in vitro; format: in vitro ADME; conditions: 37° C., 12.0 μM, read-out: % bound (converted)
T1 construct: tissue Zen-Bio; host or cells: pooled human whole blood (K2EDTA, 36 donors) and plasma prepared from it
Protocol: To study the binding kinetics of the albumin-binding maytansinoids in pooled human plasma and pooled human whole blood, the compounds were incubated together with pooled human plasma at 37° C. and samples were taken at specified time points. Remaining albumin-binding maytansinoids were quantitated by HPLC.
To study the binding kinetics in human whole blood, the blood (K2EDTA, 36 donors, Zen-Bio; 900 μL) was preincubated at 37° C. for 30 min in a heating block. To study the binding kinetics in pooled human plasma, the pooled whole blood was centrifuged (10 min, 1811 g), the supernatant plasma was collected and then preincubated at 37° C. for 30 min.
The albumin-binding maytansinoid was added to the preincubated whole blood/plasma sample as a 10-fold dilution in PBS of a 1.2 mM stock solution in 2.5% propylene glycol in 10 mM sodium phosphate buffer and 1.48 mM citrate (100 μL) to produce a 12.0 μM solution of the respective albumin-binding maytansinoid. Samples (190 μL) were taken after 15 s, 2 min, 4 min, 8 min and 15 min. The samples were directly added to 760 μL MeCN containing maytansine (5 μg/mL) as an internal standard and vortexed for 1 min. After centrifugation (1 min at 12,044 g) the supernatant (850 μL) was concentrated under high vacuum. The residue was taken up in DMSO/water (1:1 v/v; 95 μL) and then analyzed by RP-HPLC. Percentage of binding was determined by comparison of the area under the curve (AUC) at 220 nm of the albumin-binding maytansinoid relative to a control sample (100% value) in PBS buffer. All experiments were performed in triplicates.
HPLC method: Phenomenex Kinetex Polar C18, 2.6 μm, 100 Å, 150×4.6 mm; eluent A (95:5 5 mM ammonium acetate: MeCN) and eluent B (5:95 5 mM ammonium acetate: MeCN) eluting with a gradient of eluent B (30% 0-0.5 min, 30-95% 0.5-9.0 min, 95% 11.0 min, 95-30% 11.0-14.5 min, 30% 15.0 min, flow rate=1.0 mL/min). Column oven temperature ambient temperature; autosampler temperature 4° C.; 50 μL of injection volume.

[6] = Stability and release kinetics of maytansinoid-HSA conjugates in buffer solution at pH 4.0 and pH 7.4; format: physicochemical; conditions: maytansinoid-HSA conjugate, PBS pH 7.4, 37° C., measured at 100 μM
Protocol: For preparing HSA conjugates of albumin-binding maytansinoids, HSA (200 μM: 361.8 μL, 1078 μM free Cys34; 100 μM: 180.9 μL, 1078 μM free Cys34) was diluted with PBS buffer (4 mM sodium phosphate, 150 mM NaCl, pH 7.4) (200 μM: 678.2 μL; 100 μM: 859.1 μL) and DMSO (200 μM: 130.0 μL; 100 μM: 195.0 μL) and incubated in a heating block at 37° C. for 30 minutes. The albumin-binding maytansinoid was added as a 2 mM stock solution in DMSO (200 μM: 130.0 μL; 100 μM: 65.0 μL) to the preincubated HSA sample to produce a 200 μM or 100 μM solution of maytansinoid-prodrug and 300 μM or 150 μM of free Cys34. The mixture having a pH of 7.4 was allowed to react for 10 min at 37° C. and was then analyzed hourly for 24 hours by RP-HPLC (Phenomenex Aeris WP XB-C18, 3.6 μm, 250×4.6 mm).
For studying the release kinetics at pH 4.0 the mixture was acidified with a mixture of 50 mM sodium acetate buffer pH 3.0 (200 μM: 119.3 μL; 100 μM: 125.2 μL) and 1 M HCl (200 μM: 12.7 μL; 100 μM: 6.8 μL) to reach pH 4.0. The mixture was subsequently analyzed hourly for 24 hours by RP-HPLC (Phenomenex Aeris WP XB-C18, 3.6 μm, 250×4.6 mm).
The following RP-HPLC conditions were used: Phenomenex Aeris WP XB-C18 3.6 μm, 250×4.6 mm; eluent A (100% 20 mM Tris buffer pH 8.0) and eluent B (90:10, MeCN: water) eluting with a gradient of eluent B (25% 0-0.5 min, 25-35% 0.5-2.5 min, 35-85% 2.5-16 min, 85-95% 16-17 min, 95% 17-20 min, 95-25% 20-25 min, 25% 25-30 min, flow rate 1.0 mL/min). Column oven temperature 37° C.; autosampler temperature 37° C.; 20 μL of injection volume.
To quantify the percentage of free drug released, standard curves of the free maytansinoids were prepared at different concentrations (200 μM, 100 μM, 50 μM, 25 μM and 12.5 μM). The area under the curve (AUC) was determined at 250 nm.

T1 sequence (P02768 25-609): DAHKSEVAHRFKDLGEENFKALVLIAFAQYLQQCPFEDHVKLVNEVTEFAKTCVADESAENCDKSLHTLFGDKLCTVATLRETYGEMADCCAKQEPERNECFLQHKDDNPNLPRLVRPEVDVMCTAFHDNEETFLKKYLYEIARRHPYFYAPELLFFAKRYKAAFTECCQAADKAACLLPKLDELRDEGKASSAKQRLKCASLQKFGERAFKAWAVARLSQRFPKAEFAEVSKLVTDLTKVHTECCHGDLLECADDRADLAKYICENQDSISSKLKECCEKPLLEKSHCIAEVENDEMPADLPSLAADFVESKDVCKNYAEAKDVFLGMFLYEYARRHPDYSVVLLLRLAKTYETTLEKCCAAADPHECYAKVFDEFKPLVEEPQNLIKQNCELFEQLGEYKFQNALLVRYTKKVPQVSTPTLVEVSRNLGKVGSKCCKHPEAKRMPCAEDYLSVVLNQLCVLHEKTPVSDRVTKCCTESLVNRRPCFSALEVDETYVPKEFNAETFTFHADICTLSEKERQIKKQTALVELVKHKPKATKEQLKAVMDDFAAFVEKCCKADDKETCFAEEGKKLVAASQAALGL

SMILES	% of free maytansinoid remaining after 24 h [1] [%]	% of free maytansinoid remaining after 24 h [2] [%]	pIC50 [3]	antitumor activity [4]	fraction unbound ([5]; blood, pooled human whole blood, 15 s)	fraction unbound ([5]; blood, pooled human whole blood, 8 min)	fraction unbound ([5]; plasma, pooled human plasma, 15 s)	fraction unbound ([5]; plasma, pooled human plasma, 8 min)	free maytansinoid after 24 h at pH 7.4 [6] [%**]
COc1cc2cc(c1Cl)N(C)C(=O)C[C@H](OC(=O)Cc1ccc(C(C)=O)cc1F)[C@]1(C)O[C@H]1[C@H](C)[C@@H]1C[C@@](O)(NC(=O)O1)[C@H](OC)/C=C/C=C(\C)C2 [Compound 2]	74.8	71.8	9.52						
COc1cc2cc(c1Cl)N(C)C(=O)C[C@H](OC(=O)COc1cccc(C(C)=O)c1)[C@]1(C)O[C@H]1[C@H](C)[C@@H]1C[C@@](O)(NC(=O)O1)[C@H](OC)/C=C/C=C(\C)C2 [Compound 3]	69.6	40.8	10.00						
COc1cc2cc(c1Cl)N(C)C(=O)C[C@H](OC(=O)Cc1ccc(C(C)=O)cc1)[C@]1(C)O[C@H]1[C@H](C)[C@@H]1C[C@@](O)(NC(=O)O1)[C@H](OC)/C=C/C=C(\C)C2 [Compound 4]	75.6	65.2	9.80						
COc1cc2cc(c1Cl)N(C)C(=O)C[C@H](OC(=O)Cc1ccc(/C(C)=N/NC(=O)c3ccc(NC(=O)CCCCCN4C(=O)C=CC4=O)cc3S(=O)(=O)O)cc1F)[C@]1(C)O[C@H]1[C@H](C)[C@@H]1C[C@@](O)(NC(=O)O1)[C@H](OC)/C=C/C=C(\C)C2 [Compound 30]				partial and complete tumor regressions	0.017	0.015	0.036	0.015	9.6
